Measured values as given in the NIST ThermoML archive (doi:10.1021/je400535t).
“And” between values parts separate entries of the source, which are not always exact repeats. Equal values may be shown once. ± gives the expanded uncertainty stated by the source.

Assay: molar heat capacity at constant pressure
Conditions: 101.33 kPa, Crystal, Small (less than 1 g) adiabatic calorimetry

O=C([O][Sb]([O]C(=O)C12CC3CC(CC(C3)C1)C2)([c]1ccccc1)([c]1ccccc1)[c]1ccccc1)C12CC3CC(CC(C3)C1)C2
Conditions	molar heat capacity at constant pressure
5 K	2.04 ± 0.1 J/K/mol
6.41 K	4.28 ± 0.19 J/K/mol
6.94 K	5 ± 0.22 J/K/mol
7.48 K	6.19 ± 0.27 J/K/mol
8.31 K	8.15 ± 0.35 J/K/mol
9.04 K	10 ± 0.4 J/K/mol
9.66 K	11.6 ± 0.5 J/K/mol
10 K	12.5 ± 0.5 J/K/mol
10.2 K	13.1 ± 0.6 J/K/mol
10.77 K	14.6 ± 0.6 J/K/mol
11.22 K	16 ± 0.7 J/K/mol
11.69 K	17.3 ± 0.7 J/K/mol
12.18 K	18.9 ± 0.8 J/K/mol
12.78 K	20.8 ± 0.9 J/K/mol
13.14 K	22 ± 0.9 J/K/mol
13.61 K	23.6 ± 1 J/K/mol
14.14 K	25.5 ± 1.1 J/K/mol
14.53 K	26.8 ± 1.1 J/K/mol
15 K	28.4 ± 1.2 J/K/mol
15.03 K	28.42 ± 0.46 J/K/mol
15.43 K	29.84 ± 0.48 J/K/mol
15.87 K	31.16 ± 0.49 J/K/mol
16.49 K	33.38 ± 0.52 J/K/mol
17.1 K	35.31 ± 0.55 J/K/mol
17.71 K	37.46 ± 0.58 J/K/mol
18.32 K	39.7 ± 0.61 J/K/mol
18.89 K	41.48 ± 0.63 J/K/mol
19.52 K	43.6 ± 0.66 J/K/mol
20 K	45.29 ± 0.68 J/K/mol
20.03 K	45.33 ± 0.68 J/K/mol
21.3 K	50 ± 0.74 J/K/mol
21.81 K	51.4 ± 0.75 J/K/mol
22.55 K	53.73 ± 0.78 J/K/mol
23.78 K	58.14 ± 0.83 J/K/mol
24.3 K	60.3 ± 0.86 J/K/mol
25 K	62.48 ± 0.88 J/K/mol
25.02 K	62.63 ± 0.88 J/K/mol
26.25 K	66.95 ± 0.93 J/K/mol
26.83 K	69 ± 0.95 J/K/mol
27.53 K	71.5 ± 0.98 J/K/mol
28.8 K	76.1 ± 1 J/K/mol
29.43 K	78.2 ± 1.1 J/K/mol
30 K	80.54 ± 1 J/K/mol
30.12 K	81.06 ± 1 J/K/mol
31.46 K	85.96 ± 1.1 J/K/mol
32.84 K	90.86 ± 1.2 J/K/mol
33.37 K	92.7 ± 1.2 J/K/mol
34.23 K	95.66 ± 1.2 J/K/mol
35 K	98.3 ± 1.2 J/K/mol
35.64 K	100.4 ± 1.3 J/K/mol
37.11 K	105.3 ± 1.3 J/K/mol
38.61 K	110.2 ± 1.4 J/K/mol
39.32 K	112.6 ± 1.4 J/K/mol
40 K	114.6 ± 1.5 J/K/mol
40.13 K	115 ± 0.8 J/K/mol
41.68 K	119.9 ± 0.9 J/K/mol
43.2 K	124.6 ± 0.9 J/K/mol
44.84 K	129.5 ± 0.9 J/K/mol
45 K	130 ± 0.9 J/K/mol
46.46 K	134.4 ± 1 J/K/mol
48.11 K	139.3 ± 1 J/K/mol
49.81 K	144.3 ± 1 J/K/mol
50 K	144.9 ± 1 J/K/mol
51.54 K	149.4 ± 1.1 J/K/mol
53.3 K	154.6 ± 1.1 J/K/mol
55.08 K	159.8 ± 1.2 J/K/mol
56.92 K	165 ± 1.2 J/K/mol
58.79 K	170.2 ± 1.2 J/K/mol
60 K	173.4 ± 1.2 J/K/mol
60.68 K	175.3 ± 1.3 J/K/mol
62.61 K	180.4 ± 1.3 J/K/mol
64.56 K	185.5 ± 1.3 J/K/mol
65.56 K	188.2 ± 1.4 J/K/mol
66.56 K	190.7 ± 1.4 J/K/mol
67.71 K	194 ± 1.4 J/K/mol
68.61 K	196.1 ± 1.4 J/K/mol
69.83 K	198.9 ± 1.4 J/K/mol
70 K	199.7 ± 1.4 J/K/mol
71.36 K	203.1 ± 1.5 J/K/mol
72.79 K	206.9 ± 1.5 J/K/mol
74.91 K	212.3 ± 1.5 J/K/mol
76.18 K	214.9 ± 1.5 J/K/mol
77.05 K	217.4 ± 1.6 J/K/mol
79.88 K	223.6 ± 1.6 J/K/mol
80 K	223.8 ± 1.6 J/K/mol
82.03 K	228.1 ± 1.6 J/K/mol
82.81 K	229.3 ± 1.6 J/K/mol
84.2 K	232.4 ± 1.7 J/K/mol
84.88 K	233.7 ± 1.7 J/K/mol
86.94 K	238 ± 1.7 J/K/mol
87.67 K	240.1 ± 1.7 J/K/mol
89 K	242.4 ± 1.7 J/K/mol
90 K	244.7 ± 1.7 J/K/mol
90.77 K	246 ± 1.7 J/K/mol
91.06 K	246.7 ± 1.7 J/K/mol
93.12 K	251.6 ± 1.7 J/K/mol
93.18 K	251.3 ± 1.7 J/K/mol
95.1 K	255.9 ± 1.8 J/K/mol
97.23 K	260.6 ± 1.8 J/K/mol
99.29 K	265.2 ± 1.8 J/K/mol
100 K	266.9 ± 1.8 J/K/mol
101.34 K	269.7 ± 1.9 J/K/mol
103.39 K	274.4 ± 1.9 J/K/mol
105.44 K	279.4 ± 1.9 J/K/mol
107.49 K	283.8 ± 1.9 J/K/mol
109.54 K	288 ± 2 J/K/mol
110 K	289.1 ± 2 J/K/mol
111.58 K	292.9 ± 2 J/K/mol
113.6 K	297.5 ± 2 J/K/mol
115.64 K	301.6 ± 2.1 J/K/mol
117.68 K	306.6 ± 2.1 J/K/mol
119.72 K	310.6 ± 2.1 J/K/mol
120 K	311.3 ± 2.1 J/K/mol
121.6 K	314.8 ± 2.2 J/K/mol
123.78 K	319.2 ± 2.2 J/K/mol
125.8 K	323.9 ± 2.2 J/K/mol
127.83 K	328.3 ± 2.2 J/K/mol
129.85 K	332.6 ± 2.3 J/K/mol
130 K	333.5 ± 2.3 J/K/mol
131.86 K	337.5 ± 2.3 J/K/mol
133.87 K	341.8 ± 2.3 J/K/mol
135.88 K	346.7 ± 2.4 J/K/mol
137.88 K	351.3 ± 2.4 J/K/mol
139.88 K	353.9 ± 2.4 J/K/mol
140 K	356 ± 2.4 J/K/mol
141.88 K	360.2 ± 2.5 J/K/mol
143.86 K	365 ± 2.5 J/K/mol
145.81 K	369.5 ± 2.5 J/K/mol
147.78 K	373.9 ± 2.5 J/K/mol
149.76 K	378.3 ± 2.6 J/K/mol
150 K	378.8 ± 2.6 J/K/mol
152.23 K	383.7 ± 2.6 J/K/mol
155.2 K	391.3 ± 2.7 J/K/mol
158.16 K	397.8 ± 2.7 J/K/mol
160 K	401.7 ± 2.7 J/K/mol
161.11 K	404.3 ± 2.7 J/K/mol
164.04 K	411.2 ± 2.8 J/K/mol
166.97 K	417.6 ± 2.8 J/K/mol
169.88 K	424.5 ± 2.9 J/K/mol
170 K	424.6 ± 2.9 J/K/mol
172.78 K	430.6 ± 2.9 J/K/mol
175.68 K	437 ± 3 J/K/mol
178.57 K	443.5 ± 3 J/K/mol
180 K	447.4 ± 3 J/K/mol
181.43 K	450.4 ± 3.1 J/K/mol
184.29 K	457.3 ± 3.1 J/K/mol
187.14 K	463.9 ± 3.1 J/K/mol
189.9 K	470 ± 3.2 J/K/mol
190 K	470.3 ± 3.2 J/K/mol
192.72 K	477.1 ± 3.2 J/K/mol
195.53 K	483.7 ± 3.3 J/K/mol
198.33 K	489.7 ± 3.3 J/K/mol
200 K	493.6 ± 3.3 J/K/mol
201.12 K	496.2 ± 3.4 J/K/mol
203.89 K	503 ± 3.4 J/K/mol
209.43 K	515.8 ± 3.5 J/K/mol
210 K	517.7 ± 3.5 J/K/mol
212.2 K	523 ± 3.5 J/K/mol
214.96 K	529.5 ± 3.6 J/K/mol
217.72 K	536.6 ± 3.6 J/K/mol
220 K	542.3 ± 3.7 J/K/mol
220.47 K	543.8 ± 3.7 J/K/mol
223.23 K	550 ± 3.7 J/K/mol
225.98 K	556.9 ± 3.8 J/K/mol
228.73 K	564.4 ± 3.8 J/K/mol
230 K	567.3 ± 3.8 J/K/mol
231.48 K	571.2 ± 3.9 J/K/mol
234.15 K	576.4 ± 3.9 J/K/mol
236.89 K	583.6 ± 3.9 J/K/mol
239.63 K	590.6 ± 4 J/K/mol
240 K	591.6 ± 4 J/K/mol
242.35 K	597.2 ± 4 J/K/mol
245.08 K	603.8 ± 4.1 J/K/mol
247.81 K	610.3 ± 4.1 J/K/mol
250 K	615.4 ± 4.1 J/K/mol
250.54 K	617 ± 4.2 J/K/mol
253.26 K	623.5 ± 4.2 J/K/mol
255.99 K	630.5 ± 4.2 J/K/mol
258.71 K	636.5 ± 4.3 J/K/mol
260 K	639.5 ± 4.3 J/K/mol
261.43 K	643.1 ± 4.3 J/K/mol
264.15 K	650.3 ± 4.4 J/K/mol
266.87 K	656.1 ± 4.4 J/K/mol
269.6 K	662.2 ± 4.5 J/K/mol
270 K	664 ± 4.5 J/K/mol
272.32 K	669 ± 4.5 J/K/mol
275.04 K	675.8 ± 4.5 J/K/mol
277.75 K	683.5 ± 4.6 J/K/mol
280 K	689.1 ± 4.6 J/K/mol
280.46 K	690.8 ± 4.6 J/K/mol
283.18 K	697.8 ± 4.7 J/K/mol
285.9 K	703.7 ± 4.7 J/K/mol
288.62 K	711.2 ± 4.8 J/K/mol
290 K	714.3 ± 4.8 J/K/mol
291.34 K	717.9 ± 4.8 J/K/mol
294.06 K	724.7 ± 4.9 J/K/mol
296.83 K	732.2 ± 4.9 J/K/mol
298.15 K	734.7 ± 4.9 J/K/mol
299.59 K	739 ± 5 J/K/mol
300 K	739.3 ± 5 J/K/mol
302.36 K	745.1 ± 5 J/K/mol
305.06 K	750.5 ± 5 J/K/mol
307.66 K	756.7 ± 5.1 J/K/mol
310 K	763.8 ± 5.1 J/K/mol
310.21 K	763.5 ± 5.1 J/K/mol
312.71 K	769.8 ± 5.2 J/K/mol
315.15 K	776 ± 5.2 J/K/mol
317.53 K	781.5 ± 5.2 J/K/mol
319.66 K	787.9 ± 5.3 J/K/mol
320 K	787.8 ± 5.3 J/K/mol
321.94 K	792.5 ± 5.3 J/K/mol
324.16 K	798.1 ± 5.4 J/K/mol
326.33 K	802.6 ± 5.4 J/K/mol
328.44 K	808.3 ± 5.4 J/K/mol
330 K	811.6 ± 5.4 J/K/mol
330.51 K	813 ± 5.5 J/K/mol
332.48 K	818.5 ± 5.5 J/K/mol
334.44 K	823.2 ± 5.5 J/K/mol
336.34 K	827.3 ± 5.5 J/K/mol
338.2 K	831.4 ± 5.6 J/K/mol
340 K	835.5 ± 5.6 J/K/mol and 835.4 ± 5.6 J/K/mol
341.76 K	839.5 ± 5.6 J/K/mol
343.47 K	842.9 ± 5.7 J/K/mol
345 K	846.6 ± 5.7 J/K/mol
346.75 K	850.4 ± 5.7 J/K/mol
348.1 K	853.8 ± 5.7 J/K/mol
349.45 K	857 ± 5.7 J/K/mol
350 K	859 ± 34 J/K/mol
350.59 K	860.6 ± 5.8 J/K/mol
352.03 K	864 ± 5.8 J/K/mol
353.43 K	868 ± 5.8 J/K/mol
360 K	882 ± 35 J/K/mol
370 K	904 ± 36 J/K/mol
380 K	926 ± 37 J/K/mol
390 K	949 ± 38 J/K/mol
400 K	972 ± 39 J/K/mol
410 K	996 ± 40 J/K/mol
420 K	1020 ± 41 J/K/mol
430 K	1044 ± 42 J/K/mol
440 K	1067 ± 43 J/K/mol
450 K	1091 ± 44 J/K/mol
460 K	1118 ± 45 J/K/mol
470 K	1152 ± 46 J/K/mol
480 K	1201 ± 48 J/K/mol
490 K	1251 ± 50 J/K/mol
498 K	1289 ± 52 J/K/mol
